Assay results: ChEMBL document CHEMBL4304807, “Modulators of KEAP-1 Activity as Potential Therapies for the Treatment of Neurodegenerative Disorders” (ACS Med Chem Lett, 2019)

Target: Kelch-like ECH-associated protein 1 (Homo sapiens, UniProt Q14145)
Assay: Inhibition of KEAP1 interaction with Nrf2 in human HEK293 cells transfected with ARE-LUC assessed as activation of Nrf2 signaling pathway measured after 18 hrs by steady-Glo luciferase assay
Type: cell-based

Sequence of Kelch-like ECH-associated protein 1 (Q14145 whole entry): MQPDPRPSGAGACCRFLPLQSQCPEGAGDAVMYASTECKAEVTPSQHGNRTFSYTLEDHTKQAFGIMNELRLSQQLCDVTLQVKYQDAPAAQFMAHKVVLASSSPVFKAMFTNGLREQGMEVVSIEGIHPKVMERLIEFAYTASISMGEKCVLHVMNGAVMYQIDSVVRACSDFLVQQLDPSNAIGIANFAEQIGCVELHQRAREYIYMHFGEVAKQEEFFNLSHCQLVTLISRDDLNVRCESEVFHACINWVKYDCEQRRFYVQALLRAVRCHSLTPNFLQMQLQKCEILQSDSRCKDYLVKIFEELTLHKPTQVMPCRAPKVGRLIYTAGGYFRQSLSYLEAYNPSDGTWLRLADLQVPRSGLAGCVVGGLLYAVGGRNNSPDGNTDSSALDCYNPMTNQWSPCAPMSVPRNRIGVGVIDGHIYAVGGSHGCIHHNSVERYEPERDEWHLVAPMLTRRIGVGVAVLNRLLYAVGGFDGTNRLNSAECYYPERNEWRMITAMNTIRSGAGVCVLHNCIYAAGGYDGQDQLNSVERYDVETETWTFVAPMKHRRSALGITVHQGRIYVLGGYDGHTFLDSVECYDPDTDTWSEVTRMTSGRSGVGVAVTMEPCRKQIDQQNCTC

| Structure (SMILES) | EC50 [nM] |
| --- | --- |
| COC1(c2ncc(F)cc2C(F)F)C=C(C#N)C(=O)C2(CC2)C1 (centres undefined) | 18 |
| COC1(c2ncccc2C(F)(F)F)C=C(C#N)C(=O)C(C)(C)C1 (centres undefined) | 24 |
| COC1(c2ncc(F)cc2OC(F)F)C=C(C#N)C(=O)C(C)(C)C1 (centres undefined) | 8 |
| COC1(c2ncc(F)cc2-c2cnc(C)s2)C=C(C#N)C(=O)C(C)(C)C1 (centres undefined) | 7 |
